Laboratory results from BigSolDB 2.1.

CCOC(=O)[C@@H](C)Oc1ccc(Oc2nc3ccc(Cl)cc3o2)cc1
solubility (mole fraction)
Settings | 278.15 K | 283.15 K | 288.15 K | 293.15 K | 298.15 K | 303.15 K | 308.15 K | 313.15 K | 318.15 K | 323.15 K
in ethanol | 0.000972 | 0.00121 | 0.0015 | 0.00186 | 0.00224 | 0.00266 | 0.00314 | 0.00376 | 0.00446 | 0.00534
in water | 1.93e-06 | 2.91e-06 | 4.12e-06 | 5.68e-06 | 7.36e-06 | 9.61e-06 | 1.24e-05 | 1.59e-05 | 2.03e-05 | 2.57e-05
